Test results reported in patent publication US20250009743A1, “METHODS OF TREATING CANCERS USING STING AGONISTS” (Dana-Farber Cancer Institute, Inc., priority 2021, published 2025).

Key:
[1] = test system: mouse bone marrow-derived macrophages (BMDMs); assay: Polarization of mouse BMDMs / tumor cell-educated macrophages (flow cytometry, RNA-seq, morphology); assay type: cell-based
Procedure: Mouse macrophages and dendritic cells (DCs) were derived from the bone marrow (BM) of FVB/NJ mice by modifying protocols described in (Weischenfeldt J, Porse B. CSH Protoc 2008; Guo X, et al. J Immunol Methods 2016; 432:24-9). For generation of BM-derived macrophages (BMDMs), BM cells were seeded on ultra-low attachment plates (Corning) or petri dishes (Falcon) and cultured in DMEM supplemented with 10 ng/ml M-CSF (BioLegend, #576404), 10% FBS and 100 μg/mL penicillin-streptomycin. Fresh DMEM with 10 ng/ml M-CSF was added after 3 days, and cells were incubated for another 4 days before harvesting adherent cells (BMDMs). For DC differentiation, BM cells were seeded on tissue culture dishes (Corning) and cultured in RPMI 1640 supplemented with 20 ng/mL GM-CSF (Stem Cell Technologies, #78017), 10% FBS and 100 μg/mL penicillin-streptomycin. Fresh RPMI 1640 with 20 ng/mL GM13 CSF was added after 3 days, and non-adherent cells (DCs) were harvested after another 4 days. For preparation of tumor cell-conditioned media (CM), tumor cells were grown to 60% of confluence, washed twice with PBS, and then incubated with fresh DMEM for two days. CM were then harvested and centrifuged to collect the supernatant.
For flow cytometry analyses of tumor and TDLN samples, single-cell suspensions were obtained as described above (Tissue Digestion). Cells were stained in cold FACS buffer (PBS containing 0.2% BSA and 5 mM EDTA) with LIVE/DEAD Fixable Aqua Dead Cell Stain (Thermo Fisher) for 30 min on ice, followed by blocking with anti-CD16/32 (BioLegend) for 20 min on ice. Cells were then incubated in FACS buffer for 30 min on ice with antibodies specific to CD45 (clone 30-F11, BioLegend), TCR β chain (clone H57-597, BioLegend), CD38 (clone 145-2C11, BioLegend), CD4 (clone RM4-5, BioLegend), CD8a (clone 53-6.7, BioLegend), PD-1 (clone 29F.1A12, BioLegend), CD44 (clone IM7, BioLegend), CD62L (clone MEL-14, BioLegend), IFN-γ (clone XMG1.2, BioLegend), TNF-α (clone MP6-XT22, BioLegend), Granzyme B (clone NGZB, eBioscience), CD11c (clone N418, BioLegend), I-A/I-E (clone M5/114.15.2, BioLegend), CD80 (clone 16-10A1, BioLegend), CD86 (clone GL-1, BioLegend), CD103 (clone 2E7, BioLegend), CD11b (M1/70, BioLegend), F4/80 (clone BM8, BioLegend), phospho-TBK1 (Ser172) (clone D52C2, Cell Signaling Tech.) or phospho-IRF-3 (Ser396) (clone D601M, Cell Signaling Tech.). For intracellular staining, Foxp3/Transcription Factor Staining Buffer Set (eBioscience, #00-5523-00) was used for fixation and permeabilization. For cytokine analysis, cells were stimulated with Leukocyte Activation Cocktail with protein transport inhibitor Brefeldin A (BD Biosciences, #550583) at 37° C. for 4 hours prior to the staining. Analysis of ϵ-HA2X (Ser139) was performed according to manufacturer's instructions. Briefly, ice-cold 70% ethanol (Decon) was added dropwise to the cell pellet while vortexing. Cells were then incubated at −20° C. for 1 hour and washed three times with cold staining buffer. For the staining, 5 μL p-HA2X antibody (clone 2F3, BioLegend) was added to approximately 1×10^6 cells in 100 μL staining buffer and incubated at 4° C. for 30 min. For Annexin V and 7-AAD staining, cells were detached with accutase (Sigma, #A6964). The detached cells (from culture medium and accutase treatment) were washed twice with cold PBS, and then incubated with 5 μL FITC Annexin V (BioLegend, #640906) and 10 μL 7-AAD (BioLegend, #420404) in 100 μL Annexin V binding buffer (BioLegend, #422201) at room temperature for 15 min. Flow cytometry was performed on an LSR Fortessa HTS analyzer (BD Biosciences). All data were analyzed using FlowJo software.
For in vitro co-culture of tumor cells with macrophages, 2×10^5 tumor cells per well were co-cultured with macrophages at a ratio of 1:1 (BP cells: mouse BMDMs) or 1:1.5 (MDA-MB-436 cells: THP-1 macrophages) in 6-well plates with indicated drug treatments or DMSO vehicle control for two days. […]

PBM-R tumors = assay: PBM-R (PARPi-resistant) ovarian tumor burden in syngeneic FVB/NJ mice; assay type: in vivo, mouse; conditions: for PBM-R tumor growth inhibition: 14 days, olaparib 50 mg/kg i.p. daily, MSA-2 25 mg/kg i.p. three times a week, FIG. 23A
Procedure: The PBM and PBM-R tumor cells were transplanted orthotopically into syngeneic FVB/NJ mice to generated tumors for drug evaluation. Tumor-bearing mice were equivalently divided into control and treatment groups according to the luminescent intensity as previously described (Ding et al., 2018; Cell Rep 25, 2972-2980.e2975). Olaparib (AZD2281) was administered daily by i.p. injection at dose of 50 mg/kg body weight. Anti-PD-1 antibody (clone, 332.8H3) was diluted in PBS (250 μg/100 μl/mouse) and injected by i.p. every 3 days. MSA-2 was prepared by diluting 50 mg/ml stock in DMSO with PBS (pH 8.0) and administered every other day (three times a week, two weeks on followed by one week off) by i.p. injection at dose of 25 mg/kg body weight. The endpoints were determined by tumor burden and ascites.

[2] = test system: BMDMs generated from FVB/NJ mice; assay: Polarization of mouse BMDMs cultured in PBM / PBM-R conditioned medium; assay type: cell-based
Procedure: For ex vivo culture of mouse macrophages, bone marrow cells were isolated from FVB/NJ mice and cultured in DMEM containing 10% FBS, 55 μM 2-Mercaptoethanol and 20 ng/ml M-CSF. BMDMs (bone marrow derived macrophages) were harvested on day 7 and further cultured in 2.0 ml control medium (90% DMEM, 10% FBS, 55 μM 2-Mercaptoethanol and 5 ng/ml M-CSF) described above or the medium containing 50% tumor cell conditioned medium for 72 hrs before analysis. For the tumor cell conditioned medium, about 3×10^5 tumor cells were cultured in 6-well plate for 24 hrs and then treated with DMSO or olaparib. After 24 hrs incubation with DMSO or olaparib, the tumor cells were washed twice with PBS and cultured in DMEM containing 10% FBS for 48 hrs. The tumor cell conditioned medium was collected by centrifugation at 1,500 g for 5 min at 4° C. to remove all the debris and cells. For the cytokine blocking experiment, monoclonal antibodies that specific to each cytokine were added to the tumor cell conditioned medium before it was applied to culture macrophages.

[3] = BMDMs with BP-CM or BP/OL-CM, DMXAA 0.05 mg/mL, 24 hours, FIG. 7A

| Structure (SMILES) | CD86 expression of STING−/− TEMs ([1]; BMDMs from STING knockout mice, DMXAA 2 days, FIG. 7F) | macrophage morphology ([1]; BMDMs incubated with BP-CM, DMXAA 0.05 mg/mL, 24 hours, FIG. 8B) | expression of genes of anti-tumorigenic M1 signature [1, 3] | expression of pro-tumorigenic M2 genes [1, 3] | M1-like to M2-like ratio of TEMs ([1]; BP TEMs, DMXAA 0.05 mg/mL, two days, FIG. 7C) | TEM STING pathway activation (p-TBK1+p-IRF3+) ([1]; BP TEMs, DMXAA 24 hours, FIG. 7D) | PBM-R tumor growth inhibition (PBM-R tumors) | PBM-R tumor weight (PBM-R tumors; MSA-2 25 mg/kg i.p. three times per week with olaparib 50 mg/kg + anti-PD-1, two weeks, FIG. 14D) | M1/M2 ratio ([2]; BMDMs in 50% PBM-R-CM, ADU-S100 10 μM or MSA-2 5 ug/ml, two days, FIG. 21B) | gene expression of BMDMs (RNA-seq) ([1]; olaparib 5 μM, 24 hours, FIG. 3C) | macrophage polarization (M1-like / M2-like) ([1]; olaparib alone, two days, FIG. 3B) | response of PBM-R-shStat3 tumors in vivo (PBM-R tumors; PBM-R cells with STAT3 knockdown, FIG. 19I) | PBM-R tumor response in vivo (PBM-R tumors; orthotopically re-transplanted to syngeneic host mice, FIG. 15E) | M2-like TAM polarization of BMDMs by CM from olaparib-treated PBM cells (PBM-OLA-CM) ([2]; FIG. 19E) |
| --- | --- | --- | --- | --- | --- | --- | --- | --- | --- | --- | --- | --- | --- | --- |
| Cc1ccc2c(=O)c3cccc(CC(=O)O)c3oc2c1C [DMXAA, 5,6-dimethyl-xanthenone-4-acetic acid] | failed to increase | changed these cells to a “fried egg” shape | strongly stimulated | suppressed | reversed TEMs to M1-like macrophages | significantly increased |  |  |  |  |  |  |  |  |
| COc1cc2cc(C(=O)CCC(=O)O)sc2cc1OC [MSA-2] |  |  |  |  |  |  | little or no effect | sensitizes PARPi-resistant tumors to olaparib in vivo | significantly increased |  |  |  |  |  |
| O=C(c1cc(Cc2n[nH]c(=O)c3ccccc23)ccc1F)N1CCN(C(=O)C2CC2)CC1 [olaparib] |  |  |  |  |  |  | little or no effect |  |  | no significant direct effects | little effect | became sensitive | indeed resistance to PARPi in vivo | stronger effect on M2-like TAM polarization of BMDMs than PBM-CM |
